Source: patent publication EP0273199A2, “Uses of 3,4-diphenyl piperidine derivatives or medicines, 3,4-diphenyl piperidine derivatives, and process for their preparation” (LABORATOIRES HOECHST S.A., priority 1986, dated 1988)
Where two headings read alike, the source gives them in different places.

Assays:
[1] = system: durch Reserpin induzierten Hypothermie; test: Antireserpine activity (reserpine-induced hypothermia); assay type: in vivo, Maus; conditions: ip
Procedure: Zur Zeit 0 erhalten die Mäuse intraperitoneal Reserpin (2,5 mg/kg).
4 Stunden danach, wenn die Hypothermie genügend stark erscheint (30 bis 33°C), verabreicht man die verschiedenen zu untersuchenden Verbindungen i.p. oder p.o. Alle 30 Minuten über einen Zeitraum von 2 Stunden mißt man die Rektaltemperatur mit einer auf konstante Tiefe eingeführten, ein Thermoelement tragenden Sonde. Die Rektaltemperatur der mit verschiedenen erfindungsgemäßen Verbindungen behandelten Tiere wird mit der Temperatur einer Kontrollgruppe verglichen, die destilliertes Wasser auf die gleiche Weise wie die untersuchten Verbindungen erhält.
Die Akinesie (fehlende Bewegungen) und Ptose (Öffnungsgrad des Augenlids von 0 bis 4 nach Rubin u.a 1957) werden ebenfalls alle 30 Minuten über einen Zeitraum von 2 Stunden bewertet.
Die eine antidepressive Aktivität besitzenden Produkte wirken der durch Reserpin induzierten Hypothermie entgegen. Für jede Dosis der verabreichten Verbindung berechnet man die prozentuale Hemmung der Hypothermie.

[2] = system: Apomorphin 16 mg/kg; test: Antiapomorphine activity (apomorphine 16 mg/kg s.c., hypothermia); assay type: in vivo, Maus
Procedure: Zur Zeit 0 nach Ausgleich der Reaktaltemperaturen werden die Mäuse (6 pro Gruppe) in deren Beobachtung gestattende Einzelkäfige (11 x 3,5 x 4 cm) eingeetzt. 30 Minuten nach i.p. bzw. p.o. Verabreichung der Testsubstanz erhalten sie Apomorphin subkutan in einer Dosis von 16 mg/kg. Die Rektaltemperatur wird 30 Minuten nach dem Apomorphin gemessen. Die Kontrolltiere erhalten destilliertes Wasser statt der zu untersuchenden Verbindungen. Die bei diesen Kontrolltieren, die 16 mg/kg Apomorphin erhalten haben, beobachtete Hypothermie liegt im Durchschnitt bei 33°C. Für jede Verbindungsdosis berechnet man die prozentuale Hemmung der Hypothermie.

[3] = system: durch Oxotremorin induzierten Hypothermie; test: Antioxotremorine activity (oxotremorine-induced hypothermia); assay type: in vivo, Maus; conditions: ip, read-out: Erste wirksame Dosis Oxotremorin
Procedure: Nach Ausgleich der Rektaltemperaturen erhalten Mäuse (6 pro Gruppe) entweder destillietes Wasser oder die verschiedenen zu untersuchenden Verbindungen i.p.
30 Minuten danach verabreicht man intraperitoneal Oxotremorin in einer Dosis von 0,5 mg/kg.
Die Mäuse werden dan beobachtet: Tremor wird je nach der Intensität von 0 bis 3 bewertet, und die Akinesie wird alle 10 Minuten über einen Zeitraum von 30 Minuten auf Vorliegen oder Fehlen bestimmt.
Außerdem beobachtet man 2 Stunden lang das Erscheinen peripherer Symptome (Tränen, Darmentleerung). Die Rektaltemperatur wird alle 30 Minuten über eine Zeitraum von 2 Stunden nach der Verabreichung des Oxotremorins gemessen.
Die eine antidepressive Aktivität besitzenden Produkte wirken der durch Oxotremorin induzierten Hypothermie entgegen.
Für jede Dosis der Verbindung berechnet man die prozentuale Hemmung der Hypothermie.

[4] = system: Motoraktivität; test: Actimetry (motor activity, photocell actimeter); assay type: in vivo, Maus; conditions: for Aktimetrie: mouse, direction of change of motor activity
Text: Die Motoraktivität wird mittels Photozellenaktimetern bestimmt (Boissier und Simon, Arch. Int. Pharmacodyn. 1965, 158, 212-221).
Die Mäuse (10 oder ein Vielfaches von 10 pro Gruppe) werden unmittelbar nach i.p. Verabreichung der zu untersuchenden Verbindungen in das Aktimeter eingesetzt. Die Motoraktivität wird danach bis zur 60. Minute gemessen. De Zähler werden nach 30 Minuten abgelesen und dann auf 0 zurückgestellt und im Verlauf von 30 Minuten alle 10 Minuten abgelesen.
Die Beweglichkeit der mit den verschiedenen Verbindungen behandelten Tiere wird mit derjenigen einer destilliertes Wasser erhaltenden Kontrollgruppe verglichen.
Die eine psychostimulierende Aktivität besitzenden Produkte verursachen eine Zunahme der Beweglichkeit.

[5] = system: stereotypen Bewegungen; test: Search for stereotyped movements; assay type: in vivo, Ratte; conditions: rat
Text: Suche nach stereotypen Bewegungen an der Ratte
Unmittelbar nach i.p. oder p.o. Verabreichung der zu unteruchenden Verbindungen werden die Tiere (6 Ratten pro Gruppe) in 20 x 10 x 10 cm große, mit einem Edelstahldeckel mit Löchern von 1 cm Durchmesser versehene Einzelkäfige aus durchsichtigem Kunststoff eingesetzt. Die stereotypen Bewegungen (Bewegungen der Mundhöhle, Schnüffeln, Lecken oder Kauen) werden nach der von Simon und Chermat (J. Pharmacol. Paris, 1972, 3, 235-238) beschriebenen Methode alle 10 Minuten von 0 bis 3 bewertet, bis sie bei allen Tieren verschwunden sind.

[6] = system: Maus; test: Tail suspension test; assay type: in vivo; conditions: ip
Text: Schwanzaufhängungstest an der Maus wie von Stéru u.a. beschrieben (Psychopharmacology 85, 367-370, 1985).
Die Substanzen werden intraperitoneal 30 Minuten vor dem Test verabreicht und die Tiese isoliert (10 Mäuse pro Dosis).
Man bewertet die Dauer der Unbeweglichkeit, ausgedrückt in Sekunden über die 6 Minuten des Tests. Man untersucht auf eine Verkürzung dieser Unbeweglichkeitszeit.

[7] = system: Apomorphin 1 mg.kg^-1 s.c.; test: Apomorphine 1 mg/kg s.c. antagonism (no method given); assay type: in vivo; conditions: ip, Tabelle Ib; read-out: Erste wirksame Dosis Apomorphin 1 mg.kg^-1 s.c.
[8] = system: Toxizität des Yohimbins; test: Potentiation of yohimbine toxicity; assay type: in vivo, Maus; conditions: only or lowest value of the cell
Procedure: Wirkung auf die Toxizität des Yohimbins
Zur Zeit 0 erhalten die Mäuse entweder destilliertes Wasser oder verschiedene zu untersuchende Verbindungen i.p. 30 Minuten danach verabreicht man ihnen subkutan eine infratoxische Dosis von 25 mg/kg Yohimbinchlorhydrat.
Die Mortalität wird jede Stunde über einen Zeitraum von 4 Stunden verfolgt und dann nach 24 Stunden notiert.
Die eine antidepressive Aktivität besitzenden Produkte verursachen eine Potenzierung der Toxizität des Yohimbins.

[9] = Mus musculus, read-out: Erste wirksame Dosis Reserpin, mouse, i.p., only or lowest value of the cell
[10] = Mus musculus, ip, read-out: Erste wirksame Dosis Apomorphin 16 mg/kg, mouse, i.p., only or lowest value of the cell

| Compound | minimal effective dose ([1]; Tabelle Ib, read-out: Erste wirksame Dosis Reserpin) | minimal effective dose ([1]; mouse, i.p., only or lowest value of the cell, read-out: Erste wirksame Dosis Reserpin) | minimal effective dose ([2]; ip, Tabelle Ib, read-out: Erste wirksame Dosis Apomorphin 16 mg.kg^-1 s.c.) | minimal effective dose ([2]; ip, mouse, i.p., only or lowest value of the cell, read-out: Erste wirksame Dosis Apomorphin 16 mg/kg) | minimal effective dose ([2]; mouse, further value in the same cell, route not stated (lowest = i.p.; p.o. also tested), read-out: Erste wirksame Dosis Apomorphin 16 mg/kg) | minimal effective dose ([3]; Tabelle Ib) | minimal effective dose ([3]; mouse, i.p.) | Motilität ([4]; i.p., direction of change, Tabelle Ib) | minimal effective dose ([4]; ip, Tabelle Ib, read-out: Erste wirksame Dosis Motilität) | Aktimetrie [4] | Stereotype Bewegung ([5]; 64 mg/kg i.p.) | minimal effective dose ([6]; Tabelle Ib, read-out: Erste wirksame Dosis T.S.T. Maus) | minimal effective dose ([6]; mouse, i.p., footnote of Tabelle 1, read-out: tail suspension test= positiv ab) | minimal effective dose [7] | minimal effective dose [1, 9] | minimal effective dose [2, 10] | minimal effective dose ([3]; Mus musculus) | Erste wirksame Dosis Yohimbin ([8]; mouse, i.p.) | Stereotype Bewegung ([5]; 64 mg/kg p.o.) | minimal effective dose ([8]; Mus musculus, ip, read-out: Erste wirksame Dosis Yohimbin, mouse, i.p.) |
| --- | --- | --- | --- | --- | --- | --- | --- | --- | --- | --- | --- | --- | --- | --- | --- | --- | --- | --- | --- | --- |
| FC(F)(F)c1ccc([C@@H]2CCNC[C@H]2c2ccccc2)cc1 (racemic) [Beispiel 3, trans-3-Phenyl-4-(4-trifluormethylphenyl)-piperidin-chlorhydrat] | 1 mg/kg | 1 mg/kg | 2 mg/kg | 2 mg/kg | 4 mg/kg | 8 mg/kg | 8 mg/kg | ↘ | 32 mg/kg | ↘ | 0(64i.p.) | 4 mg/kg | ≥ 4 mg/kg | 2 mg/kg | – | – | – | – | – | – |
| c1ccc([C@@H]2CCNC[C@H]2c2ccccc2)cc1 (relative stereo) [21 (Base), trans-3,4-Diphenylpiperidin] | – | – | – | – | – | – | – | – | – | – | – | – | – | – | 4 mg/kg | 4 mg/kg | 4 mg/kg | 4 mg/kg | 0(64p.o.) | – |
| Clc1ccc(C2CCNCC2c2ccccc2)cc1 (stereo not drawn) [Beispiel 12, cis-4-(4-Chlorphenyl)-3-phenylpiperidin] | – | – | – | – | – | – | – | – | – | ↘ = | 0(64i.p.) | – | – | – | 4 mg/kg | 2 mg/kg | 16 mg/kg | – | – | 16 mg/kg |
